Data: ChEMBL document CHEMBL3585251, “Tetracycline analogues with a selective inhibitory effect on HIF-1” (Medchemcomm, 2014)
Calls of active or inactive are those of the source. The rule behind the calls is not given here.

Tests used:
[1] = Selectivity index, ratio of EC50 for effect on basal transcription in human U251 cells co-transfected with pGL3 to EC50 for Inhibition of human HIF1alpha expressed in human U251 cells co-transfected with pGL2-TK-HRE; parameters: species or system U-251
[2] = test system: U-251; experiment: Effect on basal transcription in human U251 cells co-transfected with pGL3 incubated for 24 hrs by luciferase reporter gene assay; format: ADME, cell-based; conditions: U-251, 24 h
[3] = molecular target: T1, Hypoxia-inducible factor 1-alpha (Homo sapiens, UniProt Q16665); experiment: Inhibition of human HIF1alpha-mediated transcription expressed in human U251 cells co-transfected with pGL2-TK-HRE incubated for 24 hrs by luciferase reporter gene assay; format: cell-based, U-251
Target sequence in this assay (Q16665 whole entry): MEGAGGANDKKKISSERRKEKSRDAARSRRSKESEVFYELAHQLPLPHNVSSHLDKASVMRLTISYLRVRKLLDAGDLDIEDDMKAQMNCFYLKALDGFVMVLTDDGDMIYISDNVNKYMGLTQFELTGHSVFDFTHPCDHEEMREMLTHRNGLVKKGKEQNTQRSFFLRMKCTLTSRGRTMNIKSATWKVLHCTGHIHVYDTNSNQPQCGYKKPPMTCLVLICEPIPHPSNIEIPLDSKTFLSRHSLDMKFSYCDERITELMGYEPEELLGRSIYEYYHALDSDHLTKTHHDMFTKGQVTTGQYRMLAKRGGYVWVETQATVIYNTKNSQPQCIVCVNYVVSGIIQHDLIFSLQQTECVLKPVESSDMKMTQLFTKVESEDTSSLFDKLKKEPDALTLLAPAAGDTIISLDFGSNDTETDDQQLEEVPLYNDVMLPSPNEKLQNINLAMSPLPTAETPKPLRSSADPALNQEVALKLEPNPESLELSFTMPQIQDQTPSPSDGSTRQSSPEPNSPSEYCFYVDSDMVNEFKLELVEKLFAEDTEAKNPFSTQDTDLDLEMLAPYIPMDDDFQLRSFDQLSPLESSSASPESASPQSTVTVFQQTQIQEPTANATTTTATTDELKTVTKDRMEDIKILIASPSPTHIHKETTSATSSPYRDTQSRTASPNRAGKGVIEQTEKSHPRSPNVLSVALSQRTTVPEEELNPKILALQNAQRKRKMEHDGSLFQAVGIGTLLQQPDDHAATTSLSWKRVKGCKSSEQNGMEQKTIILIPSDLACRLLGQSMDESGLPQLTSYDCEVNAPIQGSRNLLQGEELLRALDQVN

[4] = molecular target: T1, Hypoxia-inducible factor 1-alpha; experiment: Inhibition of human HIF1alpha-mediated VEGF mRNA expression in wild type human U251 cells at 10 uM incubated for 16 hrs under hypoxic condition; format: cell-based; conditions: U-251
Target sequence in this assay (Q16665 whole entry, looked up): as the sequence (Q16665 whole entry) above

[5] = test system: U-251; experiment: Inhibition of hypoxia-induced HIF1beta protein accumulation in wild type human U251 cells at 1 and 10 uM incubated for 8 hrs under hypoxic condition; format: cell-based
[6] = test system: U-251; experiment: Inhibition of human HIF1alpha mRNA expression in wild type human U251 cells at 1 and 10 uM incubated for 8 and 16 hrs under normoxic condition; format: functional, cell-based
[7] = test system: U-251; experiment: Inhibition of human HIF1alpha mRNA expression in wild type human U251 cells at 1 uM incubated for 8 hrs under hypoxic condition (reference value: 0.7 no unit); format: functional
[8] = test system: U-251; experiment: Inhibition of hypoxia-induced HIF1beta protein accumulation in wild type human U251 cells at 1 and 10 uM incubated for 8 hrs under normoxic condition; format: cell-based
[9] = test system: U-251; experiment: Inhibition of human HIF1alpha mRNA expression in wild type human U251 cells at 1 uM incubated for 16 hrs under hypoxic condition (reference value: 0.9 no unit); format: functional
[10] = molecular target: T1, Hypoxia-inducible factor 1-alpha; experiment: Inhibition of human HIF1alpha-mediated VEGF mRNA expression in wild type human U251 cells at 10 uM incubated for 8 hrs under hypoxic condition (reference value: 3.5 No unit); format: cell-based; conditions: U-251
Target sequence in this assay (Q16665 whole entry, looked up): as the sequence (Q16665 whole entry) above

[11] = molecular target: T1, Hypoxia-inducible factor 1-alpha; experiment: Inhibition of HIF1alpha protein accumulation in wild type human U251 cells at 10 uM incubated for 16 hrs under normoxic condition; format: cell-based; conditions: U-251
Target sequence in this assay (Q16665 whole entry, looked up): as the sequence (Q16665 whole entry) above

[12] = molecular target: T1, Hypoxia-inducible factor 1-alpha; experiment: Inhibition of hypoxia-induced HIF1alpha protein accumulation in wild type human U251 cells at 1 and 10 uM incubated for 8 hrs under hypoxic condition; format: cell-based; conditions: U-251
Target sequence in this assay (Q16665 whole entry, looked up): as the sequence (Q16665 whole entry) above

[13] = molecular target: T1, Hypoxia-inducible factor 1-alpha; experiment: Inhibition of human HIF1alpha-mediated VEGF mRNA expression in wild type human U251 cells at 1 uM incubated for 8 hrs under hypoxic condition (reference value: 3.5 No unit); format: cell-based; conditions: U-251
Target sequence in this assay (Q16665 whole entry, looked up): as the sequence (Q16665 whole entry) above

[14] = molecular target: T1, Hypoxia-inducible factor 1-alpha; experiment: Inhibition of human HIF1alpha-mediated VEGF mRNA expression in wild type human U251 cells at 1 uM incubated for 16 hrs under normoxic condition (Rvb =2.9 No unit); format: cell-based; conditions: U-251
Target sequence in this assay (Q16665 whole entry, looked up): as the sequence (Q16665 whole entry) above

[15] = test system: U-251; experiment: Inhibition of human HIF1alpha mRNA expression in wild type human U251 cells at 10 uM incubated for 8 hrs; format: functional; conditions: U-251, 8 h
[16] = test system: U-251; experiment: Inhibition of human HIF1alpha mRNA expression in wild type human U251 cells at 10 uM incubated for 16 hrs; format: functional; conditions: U-251, 16 h
[17] = test system: U-251; experiment: Inhibition of human HIF1alpha mRNA expression in wild type human U251 cells at 10 uM incubated for 8 hrs under hypoxic condition (reference value: 0.7 no unit); format: functional
[18] = test system: U-251; experiment: Inhibition of human HIF1alpha mRNA expression in wild type human U251 cells at 10 uM incubated for 16 hrs under hypoxic condition (reference value: 0.9 no unit); format: functional
[19] = test system: U-251; experiment: Effect on basal transcription in wild type human U251 cells at 1 and 10 uM incubated for 8 and 16 hrs under normoxic condition; format: ADME, cell-based; conditions: u-251, 16 h
[20] = molecular target: T1, Hypoxia-inducible factor 1-alpha; experiment: Inhibition of human HIF1alpha-mediated VEGF mRNA expression in wild type human U251 cells at 10 uM incubated for 16 hrs under normoxic condition (Rvb =2.9 No unit); format: cell-based; conditions: U-251
[21] = molecular target: T1, Hypoxia-inducible factor 1-alpha; experiment: Inhibition of human HIF1alpha-mediated VEGF mRNA expression in wild type human U251 cells at 1 uM incubated for 16 hrs under hypoxic condition; format: cell-based; conditions: U-251

**Q.** For `C[C@@]12C(=O)c3cccc(O)c3C(=O)[C@@H]1C[C@@H]1C(=CC[C@@H]3C(=O)NC(=O)[C@@H]31)[C@@H]2c1ccc(C(F)(F)F)cc1` (racemic), which “Ratio EC50” value [1] is on record?
**A.** >3

**Q.** What about the EC50 [2] of the same molecule?
**A.** > 20 µM

**Q.** What about the EC50 [3] of the same molecule?
**A.** 6.7 µM

**Q.** With `C[C@@]12C[C@@H]3C(=CC[C@@H]4C(=O)NC(=O)[C@@H]43)[C@H](c3ccc(C(F)(F)F)cc3)[C@@H]1C(=O)c1ccccc1C2=O` (racemic) as the molecule, how does the inhibition [4] read?
**A.** 59%

**Q.** And the inhibition [5]?
**A.** inactive

**Q.** What about the inhibition [6] of the same molecule?
**A.** Active

**Q.** What about the “fold change (FC)” value [7] of the same molecule?
**A.** 0.8

**Q.** And the “Ratio EC50” value [1]?
**A.** >8.6

**Q.** What about the inhibition [8] of the same molecule?
**A.** inactive

**Q.** What about the EC50 [2] of the same molecule?
**A.** > 20 µM

**Q.** What about the “fold change (FC)” value [9] of the same molecule?
**A.** 0.7

**Q.** And the fold change (FC) [10]?
**A.** 1.6

**Q.** And the inhibition [11]?
**A.** Active

**Q.** What about the inhibition [12] of the same molecule?
**A.** Dose-dependent effect

**Q.** And the fold change (FC) [13]?
**A.** 3

**Q.** And the fold change (FC) [14]?
**A.** 1.9

**Q.** What about the inhibition at 10 µM [15] of the same molecule?
**A.** 29%

**Q.** And the inhibition at 10 µM [16]?
**A.** 45%

**Q.** What about the EC50 [3] of the same molecule?
**A.** 2.3 µM

**Q.** And the “fold change (FC)” value [17]?
**A.** 0.5

**Q.** What about the “fold change (FC)” value [18] of the same molecule?
**A.** 0.21

**Q.** What about the Activity [19] of the same molecule?
**A.** Non-toxic

**Q.** What about the fold change (FC) [20] of the same molecule?
**A.** 1.2

**Q.** And the inhibition [21]?
**A.** 35%

**Q.** For `C[C@@]12C[C@@H]3C(=CC[C@@H]4C(=O)N(CCC(=O)O)C(=O)[C@@H]43)[C@H](c3ccc(Br)cc3)[C@@H]1C(=O)c1ccccc1C2=O` (racemic), which inhibition [4] is on record?
**A.** 69%

**Q.** And the inhibition [5]?
**A.** inactive

**Q.** What about the inhibition [6] of the same molecule?
**A.** Active

**Q.** What about the “fold change (FC)” value [7] of the same molecule?
**A.** 0.8

**Q.** And the “Ratio EC50” value [1]?
**A.** >14

**Q.** What about the inhibition [8] of the same molecule?
**A.** inactive

**Q.** And the EC50 [2]?
**A.** > 20 µM

**Q.** What about the “fold change (FC)” value [9] of the same molecule?
**A.** 0.7

**Q.** What about the fold change (FC) [10] of the same molecule?
**A.** 1.7

**Q.** What about the inhibition [11] of the same molecule?
**A.** Active

**Q.** And the inhibition [12]?
**A.** Dose-dependent effect

**Q.** And the fold change (FC) [13]?
**A.** 2.7

**Q.** What about the fold change (FC) [14] of the same molecule?
**A.** 1.6

**Q.** And the inhibition at 10 µM [15]?
**A.** 43%

**Q.** And the inhibition at 10 µM [16]?
**A.** 78%

**Q.** And the EC50 [3]?
**A.** 1.4 µM

**Q.** What about the “fold change (FC)” value [17] of the same molecule?
**A.** 0.4

**Q.** What about the “fold change (FC)” value [18] of the same molecule?
**A.** 0.2

**Q.** What about the Activity [19] of the same molecule?
**A.** Non-toxic

**Q.** And the fold change (FC) [20]?
**A.** 0.9

**Q.** And the inhibition [21]?
**A.** 38%

**Q.** Which results are given for `COc1cccc2c1C(=O)[C@@H]1C[C@@H]3C(=CC[C@@H]4C(=O)NC(=O)[C@@H]43)[C@H](c3ccc(C(F)(F)F)cc3)[C@]1(C)C2=O` (racemic)?
**A.** Ratio EC50 [1]: >3; EC50 [2]: > 20 µM; EC50 [3]: 6.7 µM

**Q.** What does the source list for `COc1cccc2c1C(=O)[C@@H]1C[C@@H]3C(=CC[C@@H]4C(=O)N(CCC(=O)O)C(=O)[C@@H]43)[C@H](c3ccc(Br)cc3)[C@]1(C)C2=O` (racemic)?
**A.** Ratio EC50 [1]: >1.4; EC50 [2]: > 20 µM; EC50 [3]: 15.5 µM

**Q.** Which results are given for `C[C@@]12C[C@@H]3C(=CC[C@@H]4C(=O)NC(=O)[C@@H]43)[C@H](c3ccc(C(F)(F)F)cc3)[C@]1(C)C(=O)c1ccccc1C2=O` (racemic)?
**A.** Ratio EC50 [1]: >2.7; EC50 [2]: > 20 µM; EC50 [3]: 7.8 µM

**Q.** What does the source list for `C[C@@]12C[C@@H]3C(=CC[C@@H]4C(=O)N(CCC(=O)O)C(=O)[C@@H]43)[C@H](c3ccc(F)cc3)[C@@H]1C(=O)c1ccccc1C2=O` (racemic)?
**A.** Ratio EC50 [1]: 2.15; EC50 [2]: 8.7 µM; EC50 [3]: 4.1 µM

**Q.** With `CC[C@@]1(O)C(=O)OCc2c1cc1n(c2=O)Cc2cc3c(CN(C)C)c(O)ccc3nc2-1` [TOPOTECAN] as the molecule, how does the EC50 [2] read?
**A.** > 20 µM
